A word on the melting point: it is the temperature, or range, at which the solid turns liquid.

Data set [1] deals with Key Broadleaf Weed and Crop Species. Description: Post-emergent Test II herbicidal activity (Table 15). In kind it is in vivo. The settings on record: post-emergence, 336 h, 14 d; for pest or weed control at 35 g/ha: 35 g ai/ha; for pest or weed control at 70 g/ha: 70 g ai/ha; for pest or weed control at 140 g/ha: 140 g ai/ha. On the procedure:
(§1) Post-emergent Test II: Seeds or nutlets of the desired test plant species were planted in Sun Gro Metro-Mix® 360 planting mixture, which typically has a pH of 6.0 to 6.8 and an organic matter content of about 30 percent, in plastic pots with a surface area of 64 square centimeters. When required to ensure good germination and healthy plants, a fungicide treatment and/or other chemical or physical treatment was applied. The plants were grown for 7-21 d in a greenhouse with an approximate 15 h photoperiod which was maintained at about 23-29° C. during the day and 22-28° C. during the night. Nutrients and water were added on a regular basis and supplemental lighting was provided with overhead metal halide 1000-Watt lamps as necessary. The plants were employed for testing when they reached the first or second true leaf stage.
(§2) A weighed amount, determined by the highest rate to be tested, of each test compound was placed in a 25 mL glass vial and was dissolved in 4 mL of a 97:3 v/v mixture of acetone and DMSO to obtain concentrated stock solutions. […] The concentrated stock solutions obtained were diluted with 20 mL of an aqueous mixture containing acetone, water, isopropyl alcohol, DMSO, Atplus 411F crop oil concentrate, and Triton® X-155 surfactant in a 48.5:39:10:1.5:1.0:0.02 v/v ratio to obtain spray solutions containing the highest application rates. Additional application rates were obtained by serial dilution of 12 mL of the high rate solution into a solution containing 2 mL of 97:3 v/v mixture of acetone and DMSO and 10 mL of an aqueous mixture containing acetone, water, isopropyl alcohol, DMSO, Atplus 411F crop oil concentrate, and Triton X-155 surfactant in a 48.5:39:10:1.5:1.0:0.02 v/v ratio to obtain 1/2×, 1/4×, 1/8× and 1/16× rates of the high rate. Compound requirements are based upon a 12 mL application volume at a rate of 187 liters per hectare (L/ha). Formulated compounds were applied to the plant material with an overhead Mandel track sprayer equipped with 8002E nozzles calibrated to deliver 187 L/ha over an application area of 0.503 square meters at a spray height of 18 inches (43 cm) above the average plant canopy height. Control plants were sprayed in the same manner with the solvent blank.
(§3) The treated plants and control plants were placed in a greenhouse as described above and watered by subirrigation to prevent wash-off of the test compounds. After 14 d, the condition of the test plants as compared with that of the untreated plants was determined visually and scored on a scale of 0 to 100 percent where 0 corresponds to no injury and 100 corresponds to complete kill.

In data set [2] the test system is Key Grass and Sedge Weeds as well as Grass Crops. Description: Post-emergent Test II herbicidal activity (Table 16). In kind it is in vivo. The settings on record: post-emergence, 336 h, 140 g ai/ha. Here is the method:
as §1, §2, §3

[3] abbreviates: Abutilon theophrasti, velvetleaf (Abutilon theophrasti), read-out: Visual Growth Reduction (%) 14 Days After Application, ABUTH.
[4] abbreviates: Amaranthus retroflexus, redroot pigweed (Amaranthus retroflexus), read-out: Visual Growth Reduction (%) 14 Days After Application, AMARE.
[5] abbreviates: Brassica napus, oilseed rape, canola (Brassica napus), read-out: Visual Growth Reduction (%) 14 Days After Application, BRSNN.
[6] abbreviates: Chenopodium album, lambsquarters (Chenopodium album), read-out: Visual Growth Reduction (%) 14 Days After Application, CHEAL.
Setting [7] is: Euphorbia heterophylla, wild poinsettia (Euphorbia heterophylla), read-out: Visual Growth Reduction (%) 14 Days After Application, EPHHL.
Setting [8] is: Helianthus annuus, sunflower (Helianthus annuus), read-out: Visual Growth Reduction (%) 14 Days After Application, HELAN.

Like-named read-outs stand apart in the source and are kept apart here.

Regarding `Nc1c(Cl)c(C(=O)O)nc(-c2ccc3cc[nH]c3c2)c1Cl` [Compound 1.06], the melting point lay within 160 to 164 °C. Also, in data set [1] (setting [3]), the pest or weed control at 35 g/ha was in the range of 0 to 29%, the pest or weed control at 70 g/ha lay in the range of 0 to 29% and the pest or weed control at 140 g/ha was 0 to 29%. In data set [1] (setting [4]), the pest or weed control at 35 g/ha fell in the range of 95 to 100%, the pest or weed control at 70 g/ha is 85 to 94% and the pest or weed control at 140 g/ha lay within 75 to 84%. In data set [1] (setting [5]), the pest or weed control at 35 g/ha is 75 to 84%, the pest or weed control at 70 g/ha was 85 to 94% and the pest or weed control at 140 g/ha lay within 85 to 94%. In data set [1] (setting [6]), the pest or weed control at 35 g/ha lay within 85 to 94%, the pest or weed control at 70 g/ha was in the range of 95 to 100% and the pest or weed control at 140 g/ha was 95 to 100%. In addition, in data set [1] (setting [7]), the pest or weed control at 35 g/ha is 0 to 29%, the pest or weed control at 70 g/ha fell in the range of 0 to 29% and the pest or weed control at 140 g/ha lay in the range of 0 to 29%. Besides, in data set [1] (setting [8]), the pest or weed control at 35 g/ha fell in the range of 0 to 29%, the pest or weed control at 70 g/ha lay in the range of 0 to 29% and the pest or weed control at 140 g/ha is 0 to 29%.
For `Nc1c(F)c(-c2cccc3ccsc23)nc(C(=O)O)c1Cl` [Compound 3.25], the melting point was in the range of 183 to 185 °C. The pest or weed control at 140 g/ha in data set [1] (setting [3]) was 0 to 29%. The pest or weed control at 140 g/ha in data set [1] (setting [4]) was 95 to 100%. Moreover, the pest or weed control at 140 g/ha in data set [1] (setting [5]) was 75 to 84%. Also, the pest or weed control at 140 g/ha in data set [1] (setting [6]) lay in the range of 95 to 100%. The pest or weed control at 140 g/ha in data set [1] (setting [7]) lay within 0 to 29%. For the same compound, in data set [1] (setting [8]), the pest or weed control at 140 g/ha is 45 to 59%. The pest or weed control at 140 g/ha in data set [2] (Cyperus esculentus, yellow nutsedge (Cyperus esculentus), 14 days after application, read-out: Visual Growth Reduction (%) 14 Days After Application CYPES) fell in the range of 0 to 29%. Moreover, in data set [2] (Echinochloa crus-galli, barnyardgrass (Echinochloa crus-galli), 14 days after application, read-out: Visual Growth Reduction (%) 14 Days After Application ECHCG), the pest or weed control at 140 g/ha fell in the range of 0 to 29%. Also, the pest or weed control at 140 g/ha in data set [2] (Oryza sativa, rice (Oryza sativa), 14 days after application, read-out: Visual Growth Reduction (%) 14 Days After Application ORYSA) lay within 0 to 29%. In addition, the pest or weed control at 140 g/ha in data set [2] (Setaria faberi, giant foxtail (Setaria faberi), 14 days after application, read-out: Visual Growth Reduction (%) 14 Days After Application SETFA) was 0 to 29%. In data set [2] (Triticum aestivum, wheat, spring (Triticum aestivum), 14 days after application, read-out: Visual Growth Reduction (%) 14 Days After Application TRZAS), the pest or weed control at 140 g/ha lay in the range of 0 to 29%. In data set [2] (Zea mays, maize, corn (Zea mays), 14 days after application, read-out: Visual Growth Reduction (%) 14 Days After Application ZEAMX), the pest or weed control at 140 g/ha is 0 to 29%.
As for `Nc1c(F)c(-c2cccc3occc23)nc(C(=O)O)c1Cl` [Compound 2.17], the melting point lay in the range of 170 to 173 °C. Further, the pest or weed control at 140 g/ha in data set [1] (setting [3]) fell in the range of 75 to 84%. Further, the pest or weed control at 140 g/ha in data set [1] (setting [4]) was in the range of 95 to 100%. The pest or weed control at 140 g/ha in data set [1] (setting [5]) lay in the range of 75 to 84%. Besides, the pest or weed control at 140 g/ha in data set [1] (setting [6]) lay in the range of 95 to 100%. The pest or weed control at 140 g/ha in data set [1] (setting [7]) was 95 to 100%. Besides, the pest or weed control at 140 g/ha in data set [1] (setting [8]) is 85 to 94%. Further, the pest or weed control at 140 g/ha in data set [2] (Cyperus esculentus, yellow nutsedge (Cyperus esculentus), 14 d, read-out: Visual Growth Reduction (%) 14 Days After Application, CYPES) lay in the range of 95 to 100%. The pest or weed control at 140 g/ha in data set [2] (Echinochloa crus-galli, barnyardgrass (Echinochloa crus-galli), 14 d, read-out: Visual Growth Reduction (%) 14 Days After Application, ECHCG) was in the range of 75 to 84%. The pest or weed control at 140 g/ha in data set [2] (Oryza sativa, rice (Oryza sativa), 14 d, read-out: Visual Growth Reduction (%) 14 Days After Application, ORYSA) is 0 to 29%. The pest or weed control at 140 g/ha in data set [2] (Setaria faberi, giant foxtail (Setaria faberi), 14 d, read-out: Visual Growth Reduction (%) 14 Days After Application, SETFA) was 0 to 29%. The pest or weed control at 140 g/ha in data set [2] (Triticum aestivum, wheat, spring (Triticum aestivum), 14 d, read-out: Visual Growth Reduction (%) 14 Days After Application, TRZAS) is 0 to 29%. Further, the pest or weed control at 140 g/ha in data set [2] (Zea mays, maize, corn (Zea mays), 14 d, read-out: Visual Growth Reduction (%) 14 Days After Application, ZEAMX) was in the range of 30 to 44%.
Compound `COC(=O)c1nc(-c2ccc(Cl)c3cc[nH]c23)cc(N)c1Cl` [Compound 1.49] gave a melting point of 186 to 188 °C. For the same compound, in data set [1] (setting [3]), the pest or weed control at 35 g/ha lay in the range of 85 to 94%, the pest or weed control at 70 g/ha lay in the range of 85 to 94% and the pest or weed control at 140 g/ha was 85 to 94%. Further, in data set [1] (setting [4]), the pest or weed control at 35 g/ha was in the range of 0 to 29%, the pest or weed control at 70 g/ha was in the range of 30 to 44% and the pest or weed control at 140 g/ha was 0 to 29%. Further, in data set [1] (setting [5]), the pest or weed control at 35 g/ha is 0 to 29%, the pest or weed control at 70 g/ha lay in the range of 0 to 29% and the pest or weed control at 140 g/ha is 0 to 29%. Also, in data set [1] (setting [6]), the pest or weed control at 35 g/ha lay within 85 to 94%, the pest or weed control at 70 g/ha lay within 85 to 94% and the pest or weed control at 140 g/ha lay in the range of 95 to 100%. Further, in data set [1] (setting [7]), the pest or weed control at 35 g/ha was in the range of 0 to 29%, the pest or weed control at 70 g/ha lay within 0 to 29% and the pest or weed control at 140 g/ha was 0 to 29%. In data set [1] (setting [8]), the pest or weed control at 35 g/ha fell in the range of 0 to 29%, the pest or weed control at 70 g/ha lay in the range of 0 to 29% and the pest or weed control at 140 g/ha lay in the range of 45 to 59%.

(Values after patent US20170050957A1, “4-AMINO-6-(HETEROCYCLIC)PICOLINATES AND 6-AMINO-2-(HETEROCYCLIC)PYRIMIDINE-4-CARBOXYLATES AND THEIR USE AS HERBICIDES” (Dow AgroSciences LLC, priority 2013, published 2017).)
